# Measured values as given in patent US20260256751A1, “COMBINATION OF BETA-2-ADRENERGIC RECEPTOR AGONISTS AND GLP-1 RECEPTOR AGONISTS FOR USE IN TREATING HYPERGLYCAEMIA” (ATROGI AB, priority 2023, published 2026).
# Key:
# [1] = tested on: differentiated L6-myotubes; assay: Glucose uptake screen (Biological example 1 of WO 2019/053427); assay type: cell-based; conditions: compound at 10 μM, activity relative to isoproterenol at 10 μM, read-out: Biological example 1 of WO 2019/053427 (GU)
# Summary of the method: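 Rat L6 myoblasts were differentiated into myotubes over 7 days in 2% FBS, then serum-starved overnight. Cells were stimulated with 1×10^−5 M compound plus β2 antagonist ICI-118551 for 1 h 40 min and re-dosed for 20 min in glucose-free medium. Uptake of 50 nM ^3H-2-deoxyglucose over 10 min was counted after NaOH lysis.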
# [2] = tested on: differentiated L6-myotubes; assay: cAMP production relative to isoprenaline (Biological example 2 of WO 2019/053427); assay type: cell-based; conditions: 0.25 h, compound at 10 μM, activity relative to isoproterenol at 10 μM
# Summary of the method: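 Differentiated L6 myotubes stimulated 15 min with test compound or isoprenaline, each at final 1×10^−5 M, in HBSS with 1% BSA, 5 mM HEPES, 1 mM IBMX, pH 7.4. cAMP production by the compound expressed relative to that induced by the same concentration of isoprenaline.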
Structure (SMILES),Emax at 10 µM [1] [%],Emax at 10 µM [2] [%]
"CC1(C)C[C@@H]([C@H](O)c2ccccc2F)N1 [Compound 202, (R)-[(S)-4,4-dimethyl-2-azetidinyl](o-fluorophenyl)methanol]",< 25,< 25
"CC1(C)C[C@H]([C@@H](O)c2ccccc2F)N1 [Compound 203, (S)-[(R)-4,4-dimethyl-2-azetidinyl](o-fluorophenyl)methanol]",25 to 50,< 25
"CC1(C)C[C@H]([C@H](O)c2ccccc2F)N1 [Compound 204, (R)-[(R)-4,4-dimethyl-2-azetidinyl](o-fluorophenyl)methanol]",> 75,25 to 50
"CC1(C)C[C@@H]([C@@H](O)c2ccccc2F)N1 [Compound 205, (S)-[(S)-4,4-dimethyl-2-azetidinyl](o-fluorophenyl)methanol]",25 to 50,< 25
"CC12CC(C1)[C@H]([C@H](O)c1cccc(Cl)c1)N2 [Compound 206, (R)-{(R)-1-methyl-2-azabicyclo[2.1.1]hex-3-yl}(m-chlorophenyl)methanol]",> 75,< 25
"CC12CC(C1)[C@@H]([C@@H](O)c1cccc(Cl)c1)N2 [Compound 207, (S)-{(S)-1-methyl-2-azabicyclo[2.1.1]hex-3-yl}(m-chlorophenyl)methanol]",25 to 50,< 25
"CC12CC(C1)[C@H]([C@@H](O)c1cccc(Cl)c1)N2 [Compound 208, (S)-{(R)-1-methyl-2-azabicyclo[2.1.1]hex-3-yl}(m-chlorophenyl)methanol]",50 to 75,< 25
"CC12CC(C1)[C@@H]([C@H](O)c1cccc(Cl)c1)N2 [Compound 209, (R)-{(S)-1-methyl-2-azabicyclo[2.1.1]hex-3-yl}(m-chlorophenyl)methanol]",25 to 50,< 25
"CC12CC(C1)[C@H]([C@H](O)c1ccccc1F)N2 [Compound 210, (R)-{(R)-1-methyl-2-azabicyclo[2.1.1]hex-3-yl}(o-fluorophenyl)methanol]",> 75,> 75
"CC12CC(C1)[C@@H]([C@@H](O)c1ccccc1F)N2 [Compound 211, (S)-{(S)-1-methyl-2-azabicyclo[2.1.1]hex-3-yl}(o-fluorophenyl)methanol]",> 75,< 25
"CC12CC(C1)[C@H]([C@@H](O)c1ccccc1F)N2 [Compound 212, (S)-{(R)-1-methyl-2-azabicyclo[2.1.1]hex-3-yl}(o-fluorophenyl)methanol]",> 75,< 25
"CC12CC(C1)[C@@H]([C@H](O)c1ccccc1F)N2 [Compound 213, (R)-{(S)-1-methyl-2-azabicyclo[2.1.1]hex-3-yl}(o-fluorophenyl)methanol]",> 75,< 25
"CC1(C)C[C@H]([C@H](O)c2cncc(F)c2)N1 [Compound 214, (R)-[(R)-4,4-dimethyl-2-azetidinyl](5-fluoro-3-pyridyl)methanol]",> 75,< 25
"CC1(C)C[C@@H]([C@@H](O)c2cncc(F)c2)N1 [Compound 215, (S)-[(S)-4,4-dimethyl-2-azetidinyl](5-fluoro-3-pyridyl)methanol]",25 to 50,< 25
"CC1(C)C[C@@H]([C@H](O)c2cncc(F)c2)N1 [Compound 216, (R)-[(S)-4,4-dimethyl-2-azetidinyl](5-fluoro-3-pyridyl)methanol]",25 to 50,< 25
"CC1(C)C[C@H]([C@@H](O)c2cncc(F)c2)N1 [Compound 217, (S)-[(R)-4,4-dimethyl-2-azetidinyl](5-fluoro-3-pyridyl)methano]",25 to 50,< 25
"CCC[C@@H]1CCCC[C@H]([C@@H](O)c2cncc(F)c2)N1 [Compound 218, (S)-[(2R,7R)-7-propyl-2-azepanyl](5-fluoro-3-pyridyl)methanol]",< 25,< 25
"CCC[C@@H]1CCCC[C@H]([C@H](O)c2cncc(F)c2)N1 [Compound 219, (R)-[(2R,7R)-7-propyl-2-azepanyl](5-fluoro-3-pyridyl)methanol]",< 25,< 25
"CC12CC(C1)[C@H]([C@H](O)c1cncc(F)c1)N2 [Compound 220, (R)-{(R)-1-methyl-2-azabicyclo[2.1.1]hex-3-yl}(5-fluoro-3-pyridyl)methanol]",> 75,< 25

Structure (SMILES),Emax at 10 µM [1] [%],Emax at 10 µM [2] [%]
"CC12CC(C1)[C@@H]([C@@H](O)c1cncc(F)c1)N2 [Compound 221, (S)-{(S)-1-methyl-2-azabicyclo[2.1.1]hex-3-yl}(5-fluoro-3-pyridyl)methanol]",50 to 75,< 25
"CC12CC(C1)[C@H]([C@@H](O)c1cncc(F)c1)N2 [Compound 222, (S)-{(R)-1-methyl-2-azabicyclo[2.1.1]hex-3-yl}(5-fluoro-3-pyridyl)methanol]",< 25,< 25
"CC12CC(C1)[C@@H]([C@H](O)c1cncc(F)c1)N2 [Compound 223, (R)-{(S)-1-methyl-2-azabicyclo[2.1.1]hex-3-yl}(5-fluoro-3-pyridyl)methanol]",25 to 50,< 25
"CO[C@H]1CC[C@H](CCNC[C@H](O)c2cccc(F)c2)CC1 [Compound 224, (R)-1-(m-fluorophenyl)-2-{2-[(1r,4R)-4-methoxycyclohexyl]ethyl-amino}-1-ethanol]",25 to 50,< 25
"CO[C@H]1CC[C@H](CCNC[C@H](O)c2cncc(F)c2)CC1 [Compound 225, (R)-1-(5-fluoro-3-pyridyl)-2-{2-[(1r,4R)-4-methoxycyclohexyl]ethyl-amino}-1-ethanol]",50 to 75,< 25
"CC1(C)CC[C@H]([C@@H](O)c2cccc(N)c2F)N1 [Compound 226, (S)-[(R)-5,5-dimethyl-2-pyrrolidinyl](3-amino-2-fluorophenyl)methanol]",25 to 50,< 25
"CC1(C)CC[C@H]([C@H](O)c2cccc(N)c2F)N1 [Compound 227, (R)-[(R)-5,5-dimethyl-2-pyrrolidinyl](3-amino-2-fluorophenyl)methanol]",> 75,< 25
"CO[C@H]1CC[C@H](CNC[C@H](O)c2cccc(F)c2)CC1 [Compound 228, (R)-1-(m-fluorophenyl)-2-({[(1r,4R)-4-methoxycyclohexyl]meth-yl}amino)-1-ethanol]",50 to 75,< 25
"CO[C@H]1CC[C@H](CNC[C@H](O)c2cncc(F)c2)CC1 [Compound 229, (R)-1-(5-fluoro-3-pyridyl)-2-({[(1r,4R)-4-methoxycyclohexyl]meth-yl}amino)-1-ethanol]",50 to 75,< 25
"CC1(C)C[C@H]([C@H](O)c2cccc(Cl)c2)N1 [Compound 230, (R)-[(R)-4,4-dimethyl-2-azetidinyl](m-chlorophenyl)methanol]",> 75,< 25
"CC1(C)C[C@@H]([C@@H](O)c2cccc(Cl)c2)N1 [Compound 231, (S)-[(S)-4,4-dimethyl-2-azetidinyl](m-chlorophenyl)methanol]",25 to 50,< 25
"CC1(C)C[C@@H]([C@H](O)c2cccc(Cl)c2)N1 [Compound 232, (R)-[(S)-4,4-dimethyl-2-azetidinyl](m-chlorophenyl)methanol]",25 to 50,< 25
"CC1(C)C[C@H]([C@@H](O)c2cccc(Cl)c2)N1 [Compound 233, (S)-[(R)-4,4-dimethyl-2-azetidinyl](m-chlorophenyl)methanol]",< 25,< 25
"CCC[C@H]1CCCC[C@@H]([C@H](O)c2cncc(F)c2)N1 [Compound 234, (R)-[(2S,7S)-7-propyl-2-azepanyl](5-fluoro-3-pyridyl)methanol]",> 75,< 25
"CCC[C@H]1CCCC[C@@H]([C@@H](O)c2cncc(F)c2)N1 [Compound 235, (S)-[(2S,7S)-7-propyl-2-azepanyl](5-fluoro-3-pyridyl)methanol]",< 25,< 25
"CC1(C)CC[C@H]([C@@H](O)c2cc(F)c(N)c(F)c2)N1 [Compound 236, (S)-[(R)-5,5-dimethyl-2-pyrrolidinyl](4-amino-3,5-difluorophenyl)methanol]",> 75,25 to 50
"CO[C@H]1CC[C@@H](CCNC[C@H](O)c2cccc(F)c2)CC1 [Compound 237, (R)-1-(m-fluorophenyl)-2-{2-[(1s,4S)-4-methoxycyclohexyl]ethyl-amino}-1-ethanol]",50 to 75,< 25
"CO[C@H]1CC[C@@H](CCNC[C@H](O)c2cncc(F)c2)CC1 [Compound 238, (R)-1-(5-fluoro-3-pyridyl)-2-{2-[(1s,4S)-4-methoxycyclohexyl]ethyl-amino}-1-ethanol]",> 75,< 25
"CO[C@H]1CC[C@H](C(C)(C)NC[C@H](O)c2cccc(F)c2)CC1 [Compound 239, (R)-1-(m-fluorophenyl)-2-{1-methyl-1-[(1r,4R)-4-methoxycyclohexyl]ethyl-amino}-1-ethanol]",> 75,< 25
